Assays:
[1] = tested on: bone marrow cells from mouse femur; test: Hematopoietic toxicity in mouse having intraperitoneal injection of anticancer agent (in vivo), bone marrow cell count; set-up: species or system C57BL/6 mouse; conditions: docetaxel i.p. 50, 100, or 150 mg/kg; three days and seven days after injection; FIG. 2
Method: A C57BL/6 mouse was subjected to intraperitoneal injection of docetaxel at 50, 100, or 150 mg/kg. Three days and seven days after the injection, bone marrow cells were isolated from the mouse femur and counted, and the survival rate was measured.

[2] = tested on: animal model having bone marrow suppression induced by docetaxel; test: Alleviation of bone marrow suppression in animal model having bone marrow suppression induced by docetaxel; assay type: in vivo, C57BL/6 mice
Method: After that, a change brought by the Phragmitis Rhizoma extract was determined.
Specifically, C57BL/6 mice were categorized into 4 groups. Group 1 is a control, i.e., a group treated with saline containing 5% ethanol and 2% polysorbate 80. Group 2 is a docetaxel treatment group, i.e., a group with intraperitoneal injection (3 times) of 30 mg/kg docetaxel. Group 3 is a docetaxel and 125 mg/kg Phragmitis Rhizoma extract administration group, i.e., a group to which compulsory administration of 125 mg/kg Phragmitis Rhizoma extract was carried out, once a day starting from 2 days before the administration of docetaxel, and the compulsory administration of 125 mg/kg Phragmitis Rhizoma extract (once a day) was continued even for the 3 days of administering docetaxel. Lastly, Group 4 is a docetaxel and 250 mg/kg Phragmitis Rhizoma extract administration group, i.e., a group to which administration of 250 mg/kg Phragmitis Rhizoma extract was carried out, in the same manner as above Group 3, once a day starting from 2 days before the administration of docetaxel, and the compulsory administration of 250 mg/kg Phragmitis Rhizoma extract (once a day) was continued even for the 3 days of administering docetaxel.
After that, a change in body weight of the mouse belonging to each of the control group, docetaxel administration group, combined administration group with docetaxel and 125 mg/kg Phragmitis Rhizoma extract, and combined administration group with docetaxel and 250 mg/kg Phragmitis Rhizoma extract was measured every day. On Day 6, the mouse was sacrificed and the weight of the spleen and thymus, which play an important role in determining cell number change in bone marrow and hematopoiesis, was measured.
Organ index (mg/g)=Weight of organ (mg)/Weight of animal (g)

[3] = tested on: animal model having docetaxel-induced bone marrow suppression; test: Blood cell numbers in animal model having docetaxel-induced bone marrow suppression; assay type: in vivo, C57BL/6 mice
Method: In order to determine the influence of Phragmitis Rhizoma extract on blood parameters of an animal model having bone marrow suppression, bone marrow suppression was induced by intraperitoneal injection of docetaxel to a mouse. After that, a change brought by the Phragmitis Rhizoma extract was determined.
Specifically, C57BL/6 mice were categorized into 5 groups. Group 1 is a control, i.e., a group treated with saline containing 5% ethanol and 2% polysorbate 80. Group 2 is a docetaxel treatment group, i.e., a group with intraperitoneal injection (3 times) of 30 mg/kg docetaxel. Group 3 is a docetaxel and 30 mg/kg Phragmitis Rhizoma extract administration group, i.e., a group to which compulsory administration of 30 mg/kg Phragmitis Rhizoma extract was carried out, once a day starting from 2 days before the administration of docetaxel, and the compulsory administration of 30 mg/kg Phragmitis Rhizoma extract (once a day) was continued even for the 3 days of administering docetaxel. Group 4 is a docetaxel and 100 mg/kg Phragmitis Rhizoma extract administration group, i.e., a group to which administration was carried out in the same manner as above Group 3. Lastly, Group 5 is a docetaxel and 300 mg/kg Phragmitis Rhizoma extract administration group, i.e., a group to which administration was carried out in the same manner as Group 3.
Blood was taken from the animal and a change in the number of blood cells was determined.

[4] = docetaxel 30 mg/kg i.p. 3 times, alone, Day 6
[5] = docetaxel 30 mg/kg i.p. 3 times, alone, mean ± SEM, ten mice

CC(=O)O[C@@]12CO[C@@H]1C[C@H](O)[C@@]1(C)C(=O)[C@H](O)C3=C(C)[C@@H](OC(=O)[C@H](O)[C@@H](NC(=O)OC(C)(C)C)c4ccccc4)C[C@@](O)([C@@H](OC(=O)c4ccccc4)[C@H]21)C3(C)C [docetaxel]
number of isolated bone marrow cells [1]: a decrease in the number of the isolated bone marrow cells was observed in significant sense | number of bone marrow cells (bone marrow mononuclear cells) ([2]; docetaxel 30 mg/kg i.p. 3 times, alone, vs control, FIG. 5): decreased significantly | Spleen index [2, 4]: 2.366 ± 0.22 mg/g | Thymus index [2, 4]: 0.911 ± 0.22 mg/g | body weight ([2]; docetaxel 30 mg/kg i.p. 3 times, alone, FIG. 4): a significant decrease in body weight was induced | histopathological analysis of thymus ([2]; docetaxel administration, FIG. 7): organ shrinkage and loss of functional lymphoid organ | organ index of spleen and thymus (in words) ([2]; docetaxel alone): a decrease in organ index | expression of IL-3 (mRNA, spleen tissue) ([2]; docetaxel alone, FIG. 8): largely decreased | histological analysis of femur (H&E) ([2]; docetaxel only, FIG. 6): a hypocellularity and an abnormality in cellular structure in bone marrow | Lymphocytes [3, 5]: 1.56 ± 0.22 | Neutrophils [3, 5]: 0.30 ± 0.01 | RBCs [3, 5]: 7.72 ± 0.15 | WBCs [3, 5]: 2.09 ± 0.19 | number of blood cells (in words) ([3]; docetaxel administration group): a decrease in the number of the white blood cells, neutrophils, lymphocytes, and red blood cells
